Assays:
Assay type in all cases: biochemical
[1] = biological target: JAK3 (Homo sapiens (Human), UniProt P52333); assay: JAK/TYK2 Assay (Kinase Glo luminescence), JAK3; settings: 1.5 nM enzyme, 2 uM ATP, 4 uM pEY, 1 hr
Protocol: (§1) 10 mM test compound stock or 1 mM control compound stock (tofocitinib, ruxolitinib or staurosporine) in DMSO was diluted to 0.4 mM in DMSO. A 3-fold series dilution was then performed in DMSO to generate 10 different compound concentrations. The assay was carried out in 384-well white plate. 0.5 uL of 40× compound DMSO solution at different concentrations was mixed with 10 uL 2× enzyme prepared in reaction buffer (20 mM HEPES, 10 mM MgCl2, 0.01% Tween, 1 mM DTT, pH 7.5). 10 uL 2× substrate mixture prepared in reaction buffer was then added to start the reaction. A short spin was done to settle down all solutions to the bottom of the plate. Final concentrations of test compound in the reaction mixture were 10000, 3333, 1111, 370, 123, 41.2, 13.7, 4.57, 1.52 and 0.51 nM. Concentrations of control compound were ten times less. Enzymatic reaction was conducted at 25° C. for 1-2 hours. 10 uL of Kinase Glo Reagents was added to stop the reaction and generate the luminescent signal which was measured using Envision. Luminescence signal was inversely related to kinase activity. […] The mixture without any compound was the positive control.

[2] = biological target: TYK2 (Homo sapiens (Human), UniProt P29597); assay: JAK/TYK2 Assay (Kinase Glo luminescence), TYK2; settings: 9 nM enzyme, 2 uM ATP, 30 uM IRS-1, 1 hr
Protocol: as §1

[3] = biological target: JAK2 (Homo sapiens (Human), UniProt O60674); assay: JAK/TYK2 Assay (Kinase Glo luminescence), JAK2; settings: 0.8 nM enzyme, 2 uM ATP, 4 uM pEY, 1 hr
Protocol: as §1

[4] = biological target: JAK1 (Homo sapiens (Human), UniProt P23458); assay: JAK/TYK2 Assay (Kinase Glo luminescence), JAK1; settings: 7.5 nM enzyme, 2 uM ATP, 30 uM IRS-1, 1 hr
Protocol: as §1

Chain of JAK3 (P52333 whole entry, species assumed): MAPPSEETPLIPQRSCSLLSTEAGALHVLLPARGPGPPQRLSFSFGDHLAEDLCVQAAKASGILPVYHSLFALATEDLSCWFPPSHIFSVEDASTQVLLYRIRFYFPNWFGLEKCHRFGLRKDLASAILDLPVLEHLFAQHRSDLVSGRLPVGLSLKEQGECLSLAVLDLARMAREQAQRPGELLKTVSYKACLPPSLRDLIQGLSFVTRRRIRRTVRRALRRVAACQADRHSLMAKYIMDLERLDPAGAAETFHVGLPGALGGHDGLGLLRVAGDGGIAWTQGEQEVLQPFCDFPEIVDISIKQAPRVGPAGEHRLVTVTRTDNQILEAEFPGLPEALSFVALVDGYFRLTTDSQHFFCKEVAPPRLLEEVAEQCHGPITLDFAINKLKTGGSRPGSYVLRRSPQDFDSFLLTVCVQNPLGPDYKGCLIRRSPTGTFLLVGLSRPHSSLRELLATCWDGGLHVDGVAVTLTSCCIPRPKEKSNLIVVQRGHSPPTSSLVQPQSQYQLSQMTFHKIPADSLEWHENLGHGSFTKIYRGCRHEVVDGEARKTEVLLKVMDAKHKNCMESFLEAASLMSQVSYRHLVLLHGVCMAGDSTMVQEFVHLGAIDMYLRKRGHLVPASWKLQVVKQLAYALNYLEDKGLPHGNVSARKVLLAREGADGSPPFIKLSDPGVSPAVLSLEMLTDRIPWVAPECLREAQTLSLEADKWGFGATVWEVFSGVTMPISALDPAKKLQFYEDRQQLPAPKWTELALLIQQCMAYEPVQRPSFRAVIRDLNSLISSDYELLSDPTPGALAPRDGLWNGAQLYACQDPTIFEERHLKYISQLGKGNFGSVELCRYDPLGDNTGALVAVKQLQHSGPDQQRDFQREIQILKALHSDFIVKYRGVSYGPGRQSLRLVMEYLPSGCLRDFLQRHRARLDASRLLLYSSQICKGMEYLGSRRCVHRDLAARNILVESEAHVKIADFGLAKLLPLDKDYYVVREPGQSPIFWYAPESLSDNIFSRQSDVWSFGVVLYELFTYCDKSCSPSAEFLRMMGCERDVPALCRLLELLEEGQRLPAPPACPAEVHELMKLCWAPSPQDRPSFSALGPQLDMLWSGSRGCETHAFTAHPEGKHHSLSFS
Chain of JAK2 (O60674 whole entry, species assumed): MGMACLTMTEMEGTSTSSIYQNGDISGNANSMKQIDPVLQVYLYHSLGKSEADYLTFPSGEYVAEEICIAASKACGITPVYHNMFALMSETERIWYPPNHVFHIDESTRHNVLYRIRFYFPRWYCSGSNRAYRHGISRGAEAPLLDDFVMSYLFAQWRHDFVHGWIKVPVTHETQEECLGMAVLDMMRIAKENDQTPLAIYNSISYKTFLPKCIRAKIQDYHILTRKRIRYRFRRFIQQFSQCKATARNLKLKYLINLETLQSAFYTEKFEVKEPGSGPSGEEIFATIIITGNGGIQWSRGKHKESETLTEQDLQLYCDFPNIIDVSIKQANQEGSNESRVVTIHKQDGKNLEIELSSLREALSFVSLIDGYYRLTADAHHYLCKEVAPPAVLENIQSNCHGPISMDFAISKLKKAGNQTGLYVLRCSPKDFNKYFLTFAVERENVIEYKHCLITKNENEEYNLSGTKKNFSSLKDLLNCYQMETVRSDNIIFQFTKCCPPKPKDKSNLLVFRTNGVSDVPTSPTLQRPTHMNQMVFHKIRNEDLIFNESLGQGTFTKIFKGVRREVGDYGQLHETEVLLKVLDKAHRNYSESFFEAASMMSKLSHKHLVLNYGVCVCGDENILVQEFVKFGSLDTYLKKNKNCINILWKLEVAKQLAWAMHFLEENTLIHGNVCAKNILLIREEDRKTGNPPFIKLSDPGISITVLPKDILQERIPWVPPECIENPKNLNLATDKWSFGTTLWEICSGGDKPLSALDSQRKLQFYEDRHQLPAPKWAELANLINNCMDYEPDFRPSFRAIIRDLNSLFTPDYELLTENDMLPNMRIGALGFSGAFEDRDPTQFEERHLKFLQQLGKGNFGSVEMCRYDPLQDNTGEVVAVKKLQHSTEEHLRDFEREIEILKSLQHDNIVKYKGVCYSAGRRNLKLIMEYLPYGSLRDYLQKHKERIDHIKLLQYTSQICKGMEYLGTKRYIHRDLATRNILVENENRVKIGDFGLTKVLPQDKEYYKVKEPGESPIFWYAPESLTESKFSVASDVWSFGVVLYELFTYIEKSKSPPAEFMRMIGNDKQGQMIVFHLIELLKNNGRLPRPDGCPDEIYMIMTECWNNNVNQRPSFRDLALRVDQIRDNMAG
Chain of TYK2 (P29597 whole entry, species assumed): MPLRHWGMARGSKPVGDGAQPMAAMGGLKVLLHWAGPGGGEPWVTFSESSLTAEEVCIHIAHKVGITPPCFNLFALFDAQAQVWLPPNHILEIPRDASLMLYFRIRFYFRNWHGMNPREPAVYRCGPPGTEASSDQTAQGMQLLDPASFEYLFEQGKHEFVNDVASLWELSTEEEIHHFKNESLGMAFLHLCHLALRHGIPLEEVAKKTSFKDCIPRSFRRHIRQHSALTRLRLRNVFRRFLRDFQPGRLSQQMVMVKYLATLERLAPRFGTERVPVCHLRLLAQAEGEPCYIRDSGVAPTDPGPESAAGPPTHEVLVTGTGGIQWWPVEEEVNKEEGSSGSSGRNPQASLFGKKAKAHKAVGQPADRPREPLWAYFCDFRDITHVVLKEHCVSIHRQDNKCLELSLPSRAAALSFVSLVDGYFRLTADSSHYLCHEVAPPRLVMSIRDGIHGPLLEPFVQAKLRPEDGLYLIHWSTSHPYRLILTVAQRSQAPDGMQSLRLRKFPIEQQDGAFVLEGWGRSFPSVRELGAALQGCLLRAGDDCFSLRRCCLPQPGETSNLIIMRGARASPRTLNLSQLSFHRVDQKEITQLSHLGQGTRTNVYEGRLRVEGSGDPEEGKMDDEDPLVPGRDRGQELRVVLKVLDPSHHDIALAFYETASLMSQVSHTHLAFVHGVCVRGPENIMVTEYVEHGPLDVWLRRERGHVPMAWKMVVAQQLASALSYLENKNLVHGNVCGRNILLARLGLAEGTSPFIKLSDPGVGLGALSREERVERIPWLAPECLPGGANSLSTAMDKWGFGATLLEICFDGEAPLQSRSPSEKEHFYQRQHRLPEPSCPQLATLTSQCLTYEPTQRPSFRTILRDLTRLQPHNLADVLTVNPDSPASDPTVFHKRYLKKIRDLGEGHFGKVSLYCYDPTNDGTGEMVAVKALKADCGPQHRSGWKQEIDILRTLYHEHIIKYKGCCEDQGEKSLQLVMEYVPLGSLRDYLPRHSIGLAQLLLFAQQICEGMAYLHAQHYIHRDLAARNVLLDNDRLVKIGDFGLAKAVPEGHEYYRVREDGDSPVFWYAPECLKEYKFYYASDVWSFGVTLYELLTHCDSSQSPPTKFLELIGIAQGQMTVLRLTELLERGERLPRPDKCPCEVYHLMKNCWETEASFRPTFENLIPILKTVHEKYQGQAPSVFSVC
Chain of JAK1 (P23458 whole entry, species assumed): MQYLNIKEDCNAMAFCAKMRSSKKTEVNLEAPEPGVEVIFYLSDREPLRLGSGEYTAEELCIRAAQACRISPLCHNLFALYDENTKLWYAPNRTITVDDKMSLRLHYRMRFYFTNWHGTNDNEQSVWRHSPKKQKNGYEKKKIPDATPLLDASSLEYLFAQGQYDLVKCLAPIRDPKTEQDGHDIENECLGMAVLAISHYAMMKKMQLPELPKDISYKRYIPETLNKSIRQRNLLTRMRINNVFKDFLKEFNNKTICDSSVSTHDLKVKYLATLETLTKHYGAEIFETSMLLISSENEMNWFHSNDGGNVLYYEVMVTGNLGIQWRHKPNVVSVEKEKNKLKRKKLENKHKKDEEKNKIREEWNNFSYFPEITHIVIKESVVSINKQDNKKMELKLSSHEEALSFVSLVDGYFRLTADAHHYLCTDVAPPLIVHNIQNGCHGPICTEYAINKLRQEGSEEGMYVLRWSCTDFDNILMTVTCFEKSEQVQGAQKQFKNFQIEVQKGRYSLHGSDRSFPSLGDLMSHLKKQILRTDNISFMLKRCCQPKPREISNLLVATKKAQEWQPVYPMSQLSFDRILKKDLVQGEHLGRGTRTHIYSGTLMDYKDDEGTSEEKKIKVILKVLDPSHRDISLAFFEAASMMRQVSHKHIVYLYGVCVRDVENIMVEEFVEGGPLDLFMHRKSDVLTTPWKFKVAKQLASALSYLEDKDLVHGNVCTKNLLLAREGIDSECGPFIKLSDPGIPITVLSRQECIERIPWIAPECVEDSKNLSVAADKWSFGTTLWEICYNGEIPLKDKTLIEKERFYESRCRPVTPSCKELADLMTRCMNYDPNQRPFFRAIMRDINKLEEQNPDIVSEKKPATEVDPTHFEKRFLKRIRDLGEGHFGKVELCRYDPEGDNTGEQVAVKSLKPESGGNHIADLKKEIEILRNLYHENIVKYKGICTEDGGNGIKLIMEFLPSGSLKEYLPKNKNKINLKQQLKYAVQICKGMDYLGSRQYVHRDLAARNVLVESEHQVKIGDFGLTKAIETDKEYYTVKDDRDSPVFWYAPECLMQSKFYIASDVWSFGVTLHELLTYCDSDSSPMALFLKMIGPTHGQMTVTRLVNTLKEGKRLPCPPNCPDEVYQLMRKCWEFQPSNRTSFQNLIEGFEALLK

SMILES | IC50 [1] [nM] | IC50 [2] [nM] | IC50 [3] [nM] | IC50 [4] [nM]
CC[C@H](Cn1ccc2cnc(Nc3cnn(CC(=O)O[C@@H]4C[C@@H](C(=O)OC)N(C)C4)c3)nc21)C(C)C [Compound 131, methyl (2S,4R)-4-(2-(4-((7-((S)-2-ethyl-3-methylbutyl)-7H-pyrrolo[2,3-d]pyrimidin-2-yl)amino)-1H-pyrazol-1-yl)acetoxy)-1-methylpyrrolidine-2-carboxylate] | < 100 | < 100 | < 100 | < 100
CC[C@H](Cn1ccc2cnc(Nc3cnn(CC(=O)O[C@@H]4C[C@@H](C(=O)OC(C)C)N(C)C4)c3)nc21)C(C)C [Compound 134, isopropyl (2S,4R)-4-(2-(4-((7-((S)-2-ethyl-3-methylbutyl)-7H-pyrrolo[2,3-d]pyrimidin-2-yl)amino)-1H-pyrazol-1-yl)acetoxy)-1-methylpyrrolidine-2-carboxylate] | 100 to 1000 | 100 to 1000 | 100 to 1000 | < 100
CC[C@H](Cn1ccc2cnc(Nc3cnn(CC(=O)O[C@@H]4C[C@@H](C(=O)O)N(C)C4)c3)nc21)C(C)C [Compound 135, (2S,4R)-4-(2-(4-((7-((S)-2-ethyl-3-methylbutyl)-7H-pyrrolo[2,3-d]pyrimidin-2-yl)amino)-1H-pyrazol-1-yl)acetoxy)-1-methylpyrrolidine-2-carboxylic acid] |  | 100 to 1000 | 100 to 1000 | 100 to 1000
CCOC(=O)[C@@H]1C[C@@H](OC(=O)Cn2cc(Nc3ncc4ccn(C[C@@H](CC)C(C)C)c4n3)cn2)CN1C [Compound 133, ethyl (2S,4R)-4-(2-(4-((7-((S)-2-ethyl-3-methylbutyl)-7H-pyrrolo[2,3-d]pyrimidin-2-yl)amino)-1H-pyrazol-1-yl)acetoxy)-1-methylpyrrolidine-2-carboxylate] | < 100 | < 100 | < 100 | < 100

— patent publication US11459333B2, “Substituted pyrrolo[2,3-d]pyrimidines as JAK inhibitors” (Vimalan Biosciences, Inc., priority 2019, dated 2022)
